Measurements reported in EPA's ToxRefDB 2.

Assays:
[1] = system: rat; conditions: Prenatal developmental toxicity study, sprague dawley, Oral, Gavage/Intubation, dose end: 19 GD
[2] = system: rat; conditions: Prenatal developmental toxicity study, sprague dawley, Oral, Gavage/Intubation, dose end: 19 GD; remark: listed apart in the source
[3] = system: rat; conditions: Subchronic oral toxicity in rodents, sprague dawley, Gavage/Intubation, dose end: 13 week, group: systemic
[4] = system: mouse; conditions: Subchronic oral toxicity in rodents, cd1, Feed, dose end: 6 week, group: systemic
[5] = system: rabbit; conditions: Prenatal developmental toxicity study, dutch, Oral, Gavage/Intubation, dose end: 18 GD
[6] = system: rat; conditions: Subchronic oral toxicity in rodents, sprague dawley, Feed, dose end: 13 week, group: systemic
[7] = system: rat; conditions: Subchronic oral toxicity in rodents, fischer, Gavage/Intubation, dose end: 13 week, group: systemic
[8] = system: rat; conditions: Sub-acute repeat dose toxicity, fischer, Oral, Gavage/Intubation, dose end: 16 day, group: systemic
[9] = system: rat; conditions: Prenatal developmental toxicity study, sprague dawley, Oral, Gavage/Intubation, dose end: 15 GD
[10] = system: rat; conditions: Subchronic oral toxicity in rodents, fischer, Gavage/Intubation, dose end: 13 week, group: systemic; remark: listed apart in the source
[11] = system: rabbit; conditions: Sub-acute dermal toxicity, new zealand white, Topical, dose end: 21 day, group: systemic, systemic / pathology gross / skin / scabbing + systemic / pathology microscopic / skin / acanthosis + systemic / pathology microscopic / …
[12] = system: mouse; conditions: Sub-acute repeat dose toxicity, b6c3f1, Oral, Gavage/Intubation, dose end: 16 day, group: systemic
[13] = system: rat; conditions: Combined chronic toxicity/carcinogenicity, fischer, Oral, Gavage/Intubation, dose end: 103 week, group: systemic
[14] = system: rat; conditions: Prenatal developmental toxicity study, wistar, Oral, Gavage/Intubation, dose end: 15 GD
[15] = system: mouse; conditions: Carcinogenicity; b6c3f1; Oral; Gavage; dose end: 103 week; group: systemic; systemic / organ weight / kidney / absolute + systemic / pathology microscopic / kidney / nephropathy + systemic / pathology microscopic / …
[16] = system: hamster; conditions: Developmental neurotoxicity study; golden syrian; Oral; Gavage/Intubation; dose end: 125 PND; group: cannot be grouped; systemic / in life observation / mortality / mortality
[17] = system: mouse; conditions: Prenatal developmental toxicity study, cd1, Oral, Gavage/Intubation, dose end: 17 GD
[18] = system: rat; conditions: Prenatal developmental toxicity study; sprague dawley; Oral; Gavage/Intubation; dose end: 20 GD; group: maternal; systemic / in life observation / body weight / body weight gain
[19] = system: mouse; conditions: Carcinogenicity; b6c3f1; Oral; Feed; dose end: 80 week; group: systemic; systemic / in life observation / clinical signs / aggressive behavior + systemic / in life observation / clinical signs / alopecia + …
[20] = system: rat; conditions: Carcinogenicity; Osborne-Mendel; Oral; Feed; dose end: 80 week; group: systemic; systemic / in life observation / clinical signs / [other] + systemic / in life observation / clinical signs / alopecia + systemic / in life …
[21] = system: mouse; conditions: Multigenerational reproductive toxicity study, other, Oral, Feed, dose end: 1 generation
[22] = group: developmental, systemic / in life observation / body weight / fetal weight
[23] = group: maternal, reproductive / reproductive performance / estrous cycle / corpora lutea
[24] = group: maternal, systemic / in life observation / body weight / body weight + systemic / in life observation / body weight / body weight gain + systemic / in…
[25] = group: maternal, systemic / in life observation / clinical signs / salivation + systemic / in life observation / body weight / body weight + systemic / in …
[26] = systemic / pathology microscopic / stomach / edema + systemic / pathology microscopic / stomach / hyperkeratosis + systemic / pathology …
[27] = systemic / in life observation / body weight / body weight gain + systemic / pathology microscopic / stomach / [other] + systemic / …
[28] = systemic / in life observation / clinical signs / piloerection + systemic / organ weight / heart / absolute + systemic / pathology gross / …
[29] = group: developmental, developmental / developmental malformation / bone / unossified + systemic / in life observation / body weight / fetal weight
[30] = group: maternal, systemic / in life observation / body weight / body weight gain + systemic / in life observation / mortality / mortality
[31] = group: maternal, systemic / in life observation / body weight / body weight gain + systemic / in life observation / mortality / mortality + reproductive / …
[32] = systemic / hematology / leukocyte (wbc) count differential / leukocyte (wbc)
[33] = systemic / clinical chemistry / creatinine / creatinine + systemic / clinical chemistry / urea nitrogen / urea nitrogen + systemic / organ …
[34] = systemic / clinical chemistry / creatinine / creatinine + systemic / clinical chemistry / urea nitrogen / urea nitrogen + systemic / …
[35] = systemic / organ weight / kidney / absolute + systemic / organ weight / kidney / relative to body weight + systemic / pathology microscopic…
[36] = systemic / pathology gross / intestine large / dilatation
[37] = group: developmental, developmental / developmental malformation / general / runts + systemic / in life observation / body weight / fetal weight
[38] = systemic / in life observation / clinical signs / alopecia + systemic / in life observation / clinical signs / urogenital staining
[39] = systemic / in life observation / clinical signs / abnormal posture + systemic / in life observation / clinical signs / fur (altered …
[40] = systemic / pathology microscopic / kidney / nephropathy + systemic / urinalysis / coporphoryin / coporphoryin
[41] = group: maternal, systemic / in life observation / body weight / body weight gain
[42] = group: maternal, systemic / in life observation / body weight / body weight gain + systemic / in life observation / clinical signs / mucoid stools + systemic…
[43] = group: developmental, developmental / developmental malformation / bone / absent + developmental / developmental malformation / bone / ossification sites + …
[44] = group: maternal, systemic / in life observation / body weight / body weight gain + systemic / in life observation / mortality / mortality + systemic / organ …
[45] = group: maternal, systemic / organ weight / liver / relative to body weight
[46] = group: parental, systemic / in life observation / mortality / mortality
[47] = group: reproductive, reproductive / reproductive performance / mating / mating + reproductive / offspring survival early / litter size / litter size

O=C(CBr)OCC=CCOC(=O)CBr [1,4-Bis(bromoacetoxy)-2-butene]
LEL [1, 22]: 50 mg/kg/day
LOAEL [1, 22]: 50 mg/kg/day
NEL [1, 22]: 25 mg/kg/day
NOAEL [1, 22]: 25 mg/kg/day
LEL [1, 23]: 25 mg/kg/day
NEL [1, 23]: < 25 mg/kg/day
LOAEL [1, 24]: 50 mg/kg/day
NOAEL [1, 24]: 25 mg/kg/day
LEL [2, 22]: 35 mg/kg/day
LOAEL [2, 22]: 35 mg/kg/day
NEL [2, 22]: 20 mg/kg/day
NOAEL [2, 22]: 20 mg/kg/day
LOAEL ([2]; group: maternal, systemic / in life observation / clinical signs / salivation): 20 mg/kg/day
NEL [2, 25]: 5 mg/kg/day
NOAEL [2, 25]: 5 mg/kg/day
LEL ([2]; group: maternal, systemic / in life observation / clinical signs / salivation + systemic / in life observation / clinical signs / fur (altered appearance) + …): 20 mg/kg/day
NEL ([3]; systemic / clinical chemistry / calcium / calcium + systemic / clinical chemistry / glucose / glucose + systemic / clinical chemistry / urea…): 39.1 mg/kg/day
LOAEL [3, 26]: 4.5 mg/kg/day
NOAEL [3, 26]: < 4.5 mg/kg/day

Clc1nc(Cl)nc(Nc2ccccc2Cl)n1 [Anilazine]
LOAEL [4, 27]: 1380 mg/kg/day
NOAEL [4, 27]: 339 mg/kg/day
LEL [4, 28]: 334 mg/kg/day
NEL [4, 28]: < 334 mg/kg/day
LEL [5, 29]: 75 mg/kg/day
LOAEL [5, 29]: 75 mg/kg/day
NEL [5, 29]: 40 mg/kg/day
NOAEL [5, 29]: 40 mg/kg/day
LEL [5, 30]: 40 mg/kg/day
LOAEL [5, 30]: 40 mg/kg/day
NEL [5, 31]: 15 mg/kg/day
NOAEL [5, 31]: 15 mg/kg/day
LOAEL [6, 32]: 45.9 mg/kg/day
NOAEL [6, 32]: < 45.9 mg/kg/day
NEL ([6]; systemic / organ weight / liver / relative to body weight + systemic / organ weight / lung / relative to body weight + systemic / organ …): 600 mg/kg/day

Oc1ccc(Cl)cc1Cc1ccccc1 [Clorophene]
LOAEL [7, 33]: 240 mg/kg/day
NOAEL [7, 33]: 120 mg/kg/day
LEL [7, 34]: 30 mg/kg/day
NEL [7, 34]: < 30 mg/kg/day
LOAEL [8, 35]: 1000 mg/kg/day
NOAEL [8, 35]: 500 mg/kg/day
LEL [8, 36]: 62.5 mg/kg/day
NEL [8, 36]: < 62.5 mg/kg/day
LEL [9, 37]: 1000 mg/kg/day
LOAEL [9, 37]: > 1000 mg/kg/day
NEL [9, 37]: 300 mg/kg/day
NOAEL [9, 37]: ≥ 1000 mg/kg/day
LOAEL [9, 24]: > 1000 mg/kg/day
NEL [9, 24]: 100 mg/kg/day
NOAEL [9, 24]: ≥ 1000 mg/kg/day
LEL ([9]; group: maternal, systemic / in life observation / body weight / body weight + systemic / in life observation / water consumption / water consumption): 300 mg/kg/day
LEL [10, 38]: 30 mg/kg/day
NEL [10, 38]: < 30 mg/kg/day
LOAEL [10, 35]: 480 mg/kg/day
NOAEL [10, 35]: 240 mg/kg/day
LEL [11]: 5 mg/kg/day
LOAEL [11]: 5 mg/kg/day
NEL [11]: 1 mg/kg/day
NOAEL [11]: 1 mg/kg/day
LOAEL [12, 39]: > 1000 mg/kg/day
NEL [12, 39]: 62.5 mg/kg/day
NOAEL [12, 39]: ≥ 1000 mg/kg/day
LEL [12, 36]: 125 mg/kg/day
NEL ([13]; systemic / in life observation / clinical signs / urogenital staining + systemic / organ weight / heart / absolute + systemic / organ weight…): 240 mg/kg/day
LOAEL [13, 40]: 30 mg/kg/day
NOAEL [13, 40]: < 30 mg/kg/day
LEL [14, 22]: 375 mg/kg/day
LOAEL [14, 22]: 375 mg/kg/day
NEL [14, 22]: 75 mg/kg/day
NOAEL [14, 22]: 75 mg/kg/day
LEL [14, 41]: 75 mg/kg/day
LOAEL [14, 41]: 75 mg/kg/day
NEL [14, 42]: 15 mg/kg/day
NOAEL [14, 42]: 15 mg/kg/day
LEL [15]: 120 mg/kg/day
LOAEL [15]: 120 mg/kg/day
NEL [15]: < 120 mg/kg/day
NOAEL [15]: < 120 mg/kg/day

ClC1=C(Cl)[C@]2(Cl)[C@@H]3[C@H]4C[C@H]([C@@H]5O[C@H]45)[C@@H]3[C@@]1(Cl)C2(Cl)Cl [Endrin]
LEL [16]: 1.5 mg/kg/day
LOAEL [16]: > 1.5 mg/kg/day
NOAEL [16]: ≥ 1.5 mg/kg/day
LEL [17, 43]: 1 mg/kg/day
LOAEL [17, 43]: > 2 mg/kg/day
NEL [17, 43]: 0.5 mg/kg/day
NOAEL [17, 43]: ≥ 2 mg/kg/day
LOAEL [17, 44]: > 2 mg/kg/day
NOAEL [17, 44]: ≥ 2 mg/kg/day
LEL [17, 45]: 0.5 mg/kg/day
NEL [17, 45]: < 0.5 mg/kg/day
LEL [18]: 0.3 mg/kg/day
LOAEL [18]: > 0.45 mg/kg/day
NEL [18]: 0.15 mg/kg/day
NOAEL [18]: ≥ 0.45 mg/kg/day
LEL [19]: 0.24 mg/kg/day
LOAEL [19]: > 0.48 mg/kg/day
NEL [19]: < 0.24 mg/kg/day
NOAEL [19]: ≥ 0.48 mg/kg/day
LEL [20]: 0.125 mg/kg/day
LOAEL [20]: > 0.25 mg/kg/day
NEL [20]: < 0.125 mg/kg/day
NOAEL [20]: ≥ 0.25 mg/kg/day
LEL [21, 46]: 0.75 mg/kg/day
LOAEL [21, 46]: > 0.75 mg/kg/day
NEL [21, 46]: < 0.75 mg/kg/day
NOAEL [21, 46]: ≥ 0.75 mg/kg/day
LEL [21, 47]: 0.75 mg/kg/day
LOAEL [21, 47]: > 0.75 mg/kg/day
NEL [21, 47]: < 0.75 mg/kg/day
NOAEL [21, 47]: ≥ 0.75 mg/kg/day
